Key:
Assay in all cases: relative viability (nuclei count vs DMSO), 5 days (fraction); higher = more cells survive
CAL-12T = system: CAL-12T
How it was run: (§1)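 Relative viability divides the nuclei count in treated wells by that in vehicle wells. Lung cancer cell lines were seeded in 1536-well plates, dosed by pin tool the next day, and fixed and stained after 5 days in one step with final 0.05% Triton X-100, 1% formaldehyde and 1 ug/ml Hoechst. Dosing was a single drug or a fixed anchor-drug dose plus five library-drug doses (not always all listed) in √10 steps, and values are medians of duplicate plates imaged at 4×.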

NCI-H2085 = system: NCI-H2085
How it was run: as §1

NCI-H2170 = system: NCI-H2170
How it was run: as §1

NCI-H1651 = system: NCI-H1651
How it was run: as §1

SK-MES-1 = system: SK-MES-1
How it was run: as §1

NCI-H1355 = system: NCI-H1355
How it was run: as §1

BEN = system: BEN
How it was run: as §1

NCI-H2087 = system: NCI-H2087
How it was run: as §1

NCI-H520 = system: NCI-H520
How it was run: as §1

HCC-44 = system: HCC-44
How it was run: as §1

LXF-289 = system: LXF-289
How it was run: as §1

NCI-H1666 = system: NCI-H1666
How it was run: as §1

NCI-H1755 = system: NCI-H1755
How it was run: as §1

NCI-H460 = system: NCI-H460
How it was run: as §1

LU99A = system: LU99A
How it was run: as §1

PC-14 = system: PC-14
How it was run: as §1

NCI-H1993 = system: NCI-H1993
How it was run: as §1

COR-L23 = system: COR-L23
How it was run: as §1

NCI-H1563 = system: NCI-H1563
How it was run: as §1

NCI-H1437 = system: NCI-H1437
How it was run: as §1

NCI-H1650 = system: NCI-H1650
How it was run: as §1

NCI-H1792 = system: NCI-H1792
How it was run: as §1

CN1CCN(CCOc2cc(OC3CCOCC3)c3c(Nc4c(Cl)ccc5c4OCO5)ncnc3c2)CC1 [Saracatinib] + CS(=O)(=O)CCNCc1ccc(-c2ccc3ncnc(Nc4ccc(OCc5cccc(F)c5)c(Cl)c4)c3c2)o1 [Lapatinib] (partner 2 µM)
relative viability (CAL-12T; first compound 0.02 µM): 0.675 | relative viability (CAL-12T; first compound 0.2 µM): 0.678 | relative viability (CAL-12T; first compound 0.6325 µM): 0.791 | relative viability (CAL-12T; first compound 2 µM): 0.555 | relative viability (NCI-H2085; first compound 0.02 µM): 0.802 | relative viability (NCI-H2085; first compound 0.2 µM): 0.615 | relative viability (NCI-H2085; first compound 0.6325 µM): 0.811 | relative viability (NCI-H2085; first compound 2 µM): 0.725 | relative viability (NCI-H2170; first compound 0.02 µM): 0.28 | relative viability (NCI-H2170; first compound 0.2 µM): 0.246 | relative viability (NCI-H2170; first compound 0.6325 µM): 0.293 | relative viability (NCI-H2170; first compound 2 µM): 0.231 | relative viability (NCI-H1651; first compound 0.02 µM): 0.92 | relative viability (NCI-H1651; first compound 0.2 µM): 0.678 | relative viability (NCI-H1651; first compound 0.6325 µM): 0.873 | relative viability (NCI-H1651; first compound 2 µM): 0.695 | relative viability (SK-MES-1; first compound 0.02 µM): 0.442 | relative viability (SK-MES-1; first compound 0.2 µM): 0.425 | relative viability (SK-MES-1; first compound 0.6325 µM): 0.47 | relative viability (SK-MES-1; first compound 2 µM): 0.41 | relative viability (NCI-H1355; first compound 0.02 µM): 1.05 | relative viability (NCI-H1355; first compound 0.2 µM): 0.956 | relative viability (NCI-H1355; first compound 0.6325 µM): 1.18 | relative viability (NCI-H1355; first compound 2 µM): 0.894 | relative viability (BEN; first compound 0.02 µM): 0.745 | relative viability (BEN; first compound 0.2 µM): 0.541 | relative viability (BEN; first compound 0.6325 µM): 0.911 | relative viability (BEN; first compound 2 µM): 0.489 | relative viability (NCI-H2087; first compound 0.02 µM): 1.1 | relative viability (NCI-H2087; first compound 0.2 µM): 1.03 | relative viability (NCI-H2087; first compound 0.6325 µM): 1.25 | relative viability (NCI-H2087; first compound 2 µM): 0.981 | relative viability (NCI-H520; first compound 0.02 µM): 0.853 | relative viability (NCI-H520; first compound 0.2 µM): 0.693 | relative viability (NCI-H520; first compound 0.6325 µM): 0.708 | relative viability (NCI-H520; first compound 2 µM): 0.574 | relative viability (HCC-44; first compound 0.02 µM): 1.01 | relative viability (HCC-44; first compound 0.2 µM): 0.902 | relative viability (HCC-44; first compound 0.6325 µM): 1.17 | relative viability (HCC-44; first compound 2 µM): 1.15 | relative viability (LXF-289; first compound 0.02 µM): 0.95 | relative viability (LXF-289; first compound 0.2 µM): 0.895 | relative viability (LXF-289; first compound 0.6325 µM): 0.955 | relative viability (LXF-289; first compound 2 µM): 0.901 | relative viability (NCI-H1666; first compound 0.02 µM): 0.686 | relative viability (NCI-H1666; first compound 0.2 µM): 0.629 | relative viability (NCI-H1666; first compound 0.6325 µM): 0.777 | relative viability (NCI-H1666; first compound 2 µM): 0.872 | relative viability (NCI-H1755; first compound 0.02 µM): 1.01 | relative viability (NCI-H1755; first compound 0.2 µM): 0.816 | relative viability (NCI-H1755; first compound 0.6325 µM): 1.1 | relative viability (NCI-H1755; first compound 2 µM): 0.965 | relative viability (NCI-H460; first compound 0.02 µM): 0.886 | relative viability (NCI-H460; first compound 0.2 µM): 0.682 | relative viability (NCI-H460; first compound 0.6325 µM): 0.799 | relative viability (NCI-H460; first compound 2 µM): 1.05 | relative viability (LU99A; first compound 0.02 µM): 0.963 | relative viability (LU99A; first compound 0.2 µM): 0.748 | relative viability (LU99A; first compound 0.6325 µM): 0.969 | relative viability (LU99A; first compound 2 µM): 0.743 | relative viability (PC-14; first compound 0.02 µM): 0.334 | relative viability (PC-14; first compound 0.2 µM): 0.26 | relative viability (PC-14; first compound 0.6325 µM): 0.305 | relative viability (PC-14; first compound 2 µM): 0.185 | relative viability (NCI-H1993; first compound 0.02 µM): 0.864 | relative viability (NCI-H1993; first compound 0.2 µM): 0.737 | relative viability (NCI-H1993; first compound 2 µM): 0.691 | relative viability (COR-L23; first compound 0.02 µM): 0.947 | relative viability (COR-L23; first compound 0.2 µM): 0.571 | relative viability (COR-L23; first compound 0.6325 µM): 1.1 | relative viability (COR-L23; first compound 2 µM): 0.897 | relative viability (NCI-H1563; first compound 0.02 µM): 0.941 | relative viability (NCI-H1563; first compound 0.2 µM): 0.778 | relative viability (NCI-H1563; first compound 0.6325 µM): 0.831 | relative viability (NCI-H1563; first compound 2 µM): 0.775 | relative viability (NCI-H1437; first compound 0.02 µM): 0.884 | relative viability (NCI-H1437; first compound 0.2 µM): 0.841 | relative viability (NCI-H1437; first compound 0.6325 µM): 0.783 | relative viability (NCI-H1437; first compound 2 µM): 0.757 | relative viability (NCI-H1650; first compound 0.02 µM): 0.779 | relative viability (NCI-H1650; first compound 0.2 µM): 0.803 | relative viability (NCI-H1650; first compound 0.6325 µM): 0.573 | relative viability (NCI-H1650; first compound 2 µM): 0.47 | relative viability (NCI-H1792; first compound 0.02 µM): 0.968 | relative viability (NCI-H1792; first compound 0.2 µM): 0.778 | relative viability (NCI-H1792; first compound 0.6325 µM): 1.05 | relative viability (NCI-H1792; first compound 2 µM): 0.849
